IC50 data for nine compounds are collected here from US11331299B2, “Medicinal use of serrulatane diterpenes” (The University of Sydney, priority 2016, dated 2022).

One assay concerns the target T1, FALZ (h) bromodomain (Homo sapiens, UniProt Q12830).
T1 construct: Bromodomain; Eurofins CEREP (France), contract laboratory
Kind of assay: Epigenetic binding assay, Bromodomain. Particulars: Table 4; read-out: Reference IC50.

Another assay concerns the target USP 16 (h) (Homo sapiens, UniProt Q9Y5T5). Kind of assay: Epigenetic enzyme assay, Ubiquitin modifying enzymes. It is filed as biochemical. Particulars: Table 10; read-out: Reference IC50.
A further assay concerns the target Lipid Peroxidase. Description: Lipid Peroxidase. Particulars: concentration-response 10 to 0.01 μM. It is filed as biochemical, Dunkin Hartley Guinea pig.
For a further assay, the target named is NSD1 (h) (Homo sapiens, UniProt Q96L73). Kind of assay: Epigenetic enzyme assay, Methyltransferases (MTs). The class given is biochemical.
The target in another assay is T2, WHSC1(h) (NSD2(h)) (Homo sapiens, UniProt O96028).
T2 sequence (O96028 1-1365): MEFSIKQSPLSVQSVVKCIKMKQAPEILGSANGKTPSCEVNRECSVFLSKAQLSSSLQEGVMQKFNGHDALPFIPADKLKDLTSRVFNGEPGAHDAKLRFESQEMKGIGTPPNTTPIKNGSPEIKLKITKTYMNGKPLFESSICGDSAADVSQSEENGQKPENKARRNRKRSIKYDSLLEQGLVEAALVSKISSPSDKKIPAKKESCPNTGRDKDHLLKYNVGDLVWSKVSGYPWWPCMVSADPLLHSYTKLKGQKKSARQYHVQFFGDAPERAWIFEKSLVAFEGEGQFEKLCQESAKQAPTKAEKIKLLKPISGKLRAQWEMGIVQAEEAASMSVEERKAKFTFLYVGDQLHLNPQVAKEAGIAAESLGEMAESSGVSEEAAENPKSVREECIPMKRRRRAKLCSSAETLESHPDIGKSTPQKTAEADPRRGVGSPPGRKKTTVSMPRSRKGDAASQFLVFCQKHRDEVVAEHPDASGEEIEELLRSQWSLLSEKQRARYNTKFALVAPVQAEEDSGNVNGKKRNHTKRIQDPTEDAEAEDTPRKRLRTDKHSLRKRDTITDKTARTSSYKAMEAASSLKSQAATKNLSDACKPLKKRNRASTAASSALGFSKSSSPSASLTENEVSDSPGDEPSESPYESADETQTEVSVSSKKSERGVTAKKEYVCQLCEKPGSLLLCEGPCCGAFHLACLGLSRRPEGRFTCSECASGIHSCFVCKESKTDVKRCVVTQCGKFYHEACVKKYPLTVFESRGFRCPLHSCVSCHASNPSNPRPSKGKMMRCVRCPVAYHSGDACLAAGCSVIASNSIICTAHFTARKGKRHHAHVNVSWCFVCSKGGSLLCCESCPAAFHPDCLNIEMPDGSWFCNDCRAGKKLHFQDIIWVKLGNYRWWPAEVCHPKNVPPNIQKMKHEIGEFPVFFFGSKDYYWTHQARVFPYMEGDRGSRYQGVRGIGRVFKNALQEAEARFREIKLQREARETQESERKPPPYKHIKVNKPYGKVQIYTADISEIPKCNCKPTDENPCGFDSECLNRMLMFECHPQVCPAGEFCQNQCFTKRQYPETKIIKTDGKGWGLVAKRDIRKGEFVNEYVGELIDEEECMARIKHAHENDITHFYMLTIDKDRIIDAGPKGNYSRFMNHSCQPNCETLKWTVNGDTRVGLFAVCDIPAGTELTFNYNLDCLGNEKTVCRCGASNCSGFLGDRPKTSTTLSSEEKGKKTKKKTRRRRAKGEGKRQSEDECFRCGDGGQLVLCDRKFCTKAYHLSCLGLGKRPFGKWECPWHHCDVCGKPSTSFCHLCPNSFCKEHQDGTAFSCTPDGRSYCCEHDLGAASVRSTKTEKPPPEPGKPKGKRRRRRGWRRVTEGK
Kind of assay: Epigenetic enzyme assay, Methyltransferases (MTs). It is filed as biochemical. The following applies: Table 10; read-out: Reference IC50.

For another assay, the target named is USP 10 (h) (Homo sapiens, UniProt Q14694). Kind of assay: Epigenetic enzyme assay, Ubiquitin modifying enzymes. The following applies: Table 10; read-out: Reference IC50. It is filed as biochemical.
Another assay has as its target T3, SETD8 (h) (Homo sapiens, UniProt Q9NQR1).
T3 sequence (Q9NQR1 1-393): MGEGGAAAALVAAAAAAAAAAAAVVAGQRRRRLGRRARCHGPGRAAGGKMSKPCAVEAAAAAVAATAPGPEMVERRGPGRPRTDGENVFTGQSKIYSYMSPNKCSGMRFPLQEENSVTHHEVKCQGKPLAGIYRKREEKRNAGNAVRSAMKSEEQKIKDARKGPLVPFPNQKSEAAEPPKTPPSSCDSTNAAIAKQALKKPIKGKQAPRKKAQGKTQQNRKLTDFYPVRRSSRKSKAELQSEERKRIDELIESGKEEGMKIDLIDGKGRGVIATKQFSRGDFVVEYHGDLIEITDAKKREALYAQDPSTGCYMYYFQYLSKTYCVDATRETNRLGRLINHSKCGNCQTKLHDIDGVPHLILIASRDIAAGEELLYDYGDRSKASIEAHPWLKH
Kind of assay: Epigenetic enzyme assay, Methyltransferases (MTs). The class given is biochemical. The following applies: Table 10; read-out: Reference IC50.

Assay [1] deals with T4, KAT2A (GCN5L2) (h) bromodomain (Homo sapiens, UniProt Q92830).
T4 construct: Bromodomain
T4 sequence (Q92830 728-832 limits assumed): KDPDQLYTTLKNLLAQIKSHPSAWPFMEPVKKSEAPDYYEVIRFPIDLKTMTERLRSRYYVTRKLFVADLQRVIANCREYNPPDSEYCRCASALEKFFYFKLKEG
Kind of assay: Epigenetic binding assay, Bromodomain. The following applies: Table 9, inhibition/concentration-response curve; read-out: IC50.

The next assay deals with T5, TAF1(1) (h) bromodomain (Homo sapiens, UniProt P21675).
T5 construct: Bromodomain
T5 sequence (P21675 1397-1505 limits assumed): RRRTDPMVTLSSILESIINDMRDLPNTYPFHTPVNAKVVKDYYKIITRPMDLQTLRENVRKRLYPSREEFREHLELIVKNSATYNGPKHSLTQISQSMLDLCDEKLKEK
Description: Epigenetic binding assay, Bromodomain. Particulars: Table 4; read-out: Reference IC50.

The next assay addresses T6, TAF1(2)(h) bromodomain (Homo sapiens, UniProt P21675).
T6 construct: Bromodomain
T6 sequence (P21675 1519-1628 limits assumed): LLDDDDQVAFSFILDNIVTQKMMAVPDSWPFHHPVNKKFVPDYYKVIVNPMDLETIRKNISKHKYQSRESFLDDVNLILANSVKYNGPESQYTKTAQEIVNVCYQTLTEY
Description: Epigenetic binding assay, Bromodomain. Particulars: Table 4; read-out: Reference IC50.

Assay [2] deals with T7, sirtuin 2 (h) (inhibitor effect) (Homo sapiens, UniProt Q8IXJ6).
T7 sequence (Q8IXJ6 1-389): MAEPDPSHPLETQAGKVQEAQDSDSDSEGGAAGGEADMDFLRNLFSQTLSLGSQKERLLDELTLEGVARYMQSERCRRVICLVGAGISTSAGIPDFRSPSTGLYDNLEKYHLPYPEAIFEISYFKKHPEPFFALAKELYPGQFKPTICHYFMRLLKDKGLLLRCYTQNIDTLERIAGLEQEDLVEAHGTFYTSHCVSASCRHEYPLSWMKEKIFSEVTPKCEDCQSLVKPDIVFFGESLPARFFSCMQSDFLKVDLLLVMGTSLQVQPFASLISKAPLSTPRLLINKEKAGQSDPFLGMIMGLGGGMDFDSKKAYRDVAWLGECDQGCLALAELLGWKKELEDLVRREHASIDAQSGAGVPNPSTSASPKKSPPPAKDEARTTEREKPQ
Kind of assay: Epigenetic enzyme assay, Sirtuins. It is filed as biochemical. The following applies: Table 10; read-out: Reference IC50.

A further assay has as its target T8, NSD3/WHSC1L1 (h) (Homo sapiens, UniProt Q9BZ95).
T8 sequence (Q9BZ95 1-1437): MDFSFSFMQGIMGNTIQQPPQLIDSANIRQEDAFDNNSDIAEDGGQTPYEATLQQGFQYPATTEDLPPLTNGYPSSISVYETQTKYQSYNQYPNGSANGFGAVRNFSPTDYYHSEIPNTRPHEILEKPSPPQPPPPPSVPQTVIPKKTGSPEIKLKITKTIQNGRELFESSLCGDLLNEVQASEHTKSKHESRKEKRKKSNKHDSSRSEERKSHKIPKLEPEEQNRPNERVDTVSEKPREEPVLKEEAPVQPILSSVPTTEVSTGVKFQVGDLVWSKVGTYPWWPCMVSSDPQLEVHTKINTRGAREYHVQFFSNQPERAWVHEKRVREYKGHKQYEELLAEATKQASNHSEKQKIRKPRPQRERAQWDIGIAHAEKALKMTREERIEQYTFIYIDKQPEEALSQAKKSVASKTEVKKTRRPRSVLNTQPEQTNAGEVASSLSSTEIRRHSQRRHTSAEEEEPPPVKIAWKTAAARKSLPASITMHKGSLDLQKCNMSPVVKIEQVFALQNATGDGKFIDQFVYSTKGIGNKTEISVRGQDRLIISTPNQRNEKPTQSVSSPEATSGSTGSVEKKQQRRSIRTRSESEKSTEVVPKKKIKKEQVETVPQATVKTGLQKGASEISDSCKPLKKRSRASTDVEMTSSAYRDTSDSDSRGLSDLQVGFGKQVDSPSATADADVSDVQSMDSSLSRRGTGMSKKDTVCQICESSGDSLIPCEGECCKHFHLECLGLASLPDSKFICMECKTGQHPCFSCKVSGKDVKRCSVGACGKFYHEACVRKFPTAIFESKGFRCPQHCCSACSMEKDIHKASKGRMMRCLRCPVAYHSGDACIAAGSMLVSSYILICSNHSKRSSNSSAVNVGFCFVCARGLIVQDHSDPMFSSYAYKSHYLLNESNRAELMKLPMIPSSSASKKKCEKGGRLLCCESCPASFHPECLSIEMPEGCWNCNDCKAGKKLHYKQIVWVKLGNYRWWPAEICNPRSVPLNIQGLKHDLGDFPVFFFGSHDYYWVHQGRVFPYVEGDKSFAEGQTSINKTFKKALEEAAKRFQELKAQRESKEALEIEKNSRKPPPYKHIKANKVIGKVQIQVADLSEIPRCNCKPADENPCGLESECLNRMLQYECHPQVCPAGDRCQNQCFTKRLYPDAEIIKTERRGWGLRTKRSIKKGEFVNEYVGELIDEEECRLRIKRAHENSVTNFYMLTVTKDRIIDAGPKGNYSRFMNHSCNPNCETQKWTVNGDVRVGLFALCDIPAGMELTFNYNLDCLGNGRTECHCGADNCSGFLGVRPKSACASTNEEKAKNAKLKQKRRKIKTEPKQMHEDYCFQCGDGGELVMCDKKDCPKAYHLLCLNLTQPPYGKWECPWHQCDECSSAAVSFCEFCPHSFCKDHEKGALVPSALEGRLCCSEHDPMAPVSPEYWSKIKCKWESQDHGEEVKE
Kind of assay: Epigenetic enzyme assay, Methyltransferases (MTs). The class given is biochemical. Particulars: Table 10; read-out: Reference IC50.

The target of another assay is T9, ATAD2B (h) bromodomain (Homo sapiens, UniProt Q9ULI0).
T9 construct: ATAD2B bromodomain; host or cells: E. coli
T9 sequence (Q9ULI0 951-1066 limits assumed): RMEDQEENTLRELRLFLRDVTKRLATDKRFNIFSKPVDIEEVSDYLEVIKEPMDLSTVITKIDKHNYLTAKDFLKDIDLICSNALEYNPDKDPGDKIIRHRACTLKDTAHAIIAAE
Kind of assay: Epigenetic binding assay, Bromodomain. The following applies: Table 4; read-out: Reference IC50.

Another assay addresses T10, PB1(4) (h) bromodomain (Homo sapiens, UniProt Q86U86).
T10 construct: Bromodomain
Description: Epigenetic binding assay, Bromodomain. Particulars: Table 4; read-out: Reference IC50.

Where a name gives a salt, the structure may show the parent alone. Read-outs that look alike come from different tables or passages of the source.

As usually defined, the IC50 is the midpoint of a concentration-inhibition curve.

Sequence of NSD1 (h) (Q96L73 whole entry): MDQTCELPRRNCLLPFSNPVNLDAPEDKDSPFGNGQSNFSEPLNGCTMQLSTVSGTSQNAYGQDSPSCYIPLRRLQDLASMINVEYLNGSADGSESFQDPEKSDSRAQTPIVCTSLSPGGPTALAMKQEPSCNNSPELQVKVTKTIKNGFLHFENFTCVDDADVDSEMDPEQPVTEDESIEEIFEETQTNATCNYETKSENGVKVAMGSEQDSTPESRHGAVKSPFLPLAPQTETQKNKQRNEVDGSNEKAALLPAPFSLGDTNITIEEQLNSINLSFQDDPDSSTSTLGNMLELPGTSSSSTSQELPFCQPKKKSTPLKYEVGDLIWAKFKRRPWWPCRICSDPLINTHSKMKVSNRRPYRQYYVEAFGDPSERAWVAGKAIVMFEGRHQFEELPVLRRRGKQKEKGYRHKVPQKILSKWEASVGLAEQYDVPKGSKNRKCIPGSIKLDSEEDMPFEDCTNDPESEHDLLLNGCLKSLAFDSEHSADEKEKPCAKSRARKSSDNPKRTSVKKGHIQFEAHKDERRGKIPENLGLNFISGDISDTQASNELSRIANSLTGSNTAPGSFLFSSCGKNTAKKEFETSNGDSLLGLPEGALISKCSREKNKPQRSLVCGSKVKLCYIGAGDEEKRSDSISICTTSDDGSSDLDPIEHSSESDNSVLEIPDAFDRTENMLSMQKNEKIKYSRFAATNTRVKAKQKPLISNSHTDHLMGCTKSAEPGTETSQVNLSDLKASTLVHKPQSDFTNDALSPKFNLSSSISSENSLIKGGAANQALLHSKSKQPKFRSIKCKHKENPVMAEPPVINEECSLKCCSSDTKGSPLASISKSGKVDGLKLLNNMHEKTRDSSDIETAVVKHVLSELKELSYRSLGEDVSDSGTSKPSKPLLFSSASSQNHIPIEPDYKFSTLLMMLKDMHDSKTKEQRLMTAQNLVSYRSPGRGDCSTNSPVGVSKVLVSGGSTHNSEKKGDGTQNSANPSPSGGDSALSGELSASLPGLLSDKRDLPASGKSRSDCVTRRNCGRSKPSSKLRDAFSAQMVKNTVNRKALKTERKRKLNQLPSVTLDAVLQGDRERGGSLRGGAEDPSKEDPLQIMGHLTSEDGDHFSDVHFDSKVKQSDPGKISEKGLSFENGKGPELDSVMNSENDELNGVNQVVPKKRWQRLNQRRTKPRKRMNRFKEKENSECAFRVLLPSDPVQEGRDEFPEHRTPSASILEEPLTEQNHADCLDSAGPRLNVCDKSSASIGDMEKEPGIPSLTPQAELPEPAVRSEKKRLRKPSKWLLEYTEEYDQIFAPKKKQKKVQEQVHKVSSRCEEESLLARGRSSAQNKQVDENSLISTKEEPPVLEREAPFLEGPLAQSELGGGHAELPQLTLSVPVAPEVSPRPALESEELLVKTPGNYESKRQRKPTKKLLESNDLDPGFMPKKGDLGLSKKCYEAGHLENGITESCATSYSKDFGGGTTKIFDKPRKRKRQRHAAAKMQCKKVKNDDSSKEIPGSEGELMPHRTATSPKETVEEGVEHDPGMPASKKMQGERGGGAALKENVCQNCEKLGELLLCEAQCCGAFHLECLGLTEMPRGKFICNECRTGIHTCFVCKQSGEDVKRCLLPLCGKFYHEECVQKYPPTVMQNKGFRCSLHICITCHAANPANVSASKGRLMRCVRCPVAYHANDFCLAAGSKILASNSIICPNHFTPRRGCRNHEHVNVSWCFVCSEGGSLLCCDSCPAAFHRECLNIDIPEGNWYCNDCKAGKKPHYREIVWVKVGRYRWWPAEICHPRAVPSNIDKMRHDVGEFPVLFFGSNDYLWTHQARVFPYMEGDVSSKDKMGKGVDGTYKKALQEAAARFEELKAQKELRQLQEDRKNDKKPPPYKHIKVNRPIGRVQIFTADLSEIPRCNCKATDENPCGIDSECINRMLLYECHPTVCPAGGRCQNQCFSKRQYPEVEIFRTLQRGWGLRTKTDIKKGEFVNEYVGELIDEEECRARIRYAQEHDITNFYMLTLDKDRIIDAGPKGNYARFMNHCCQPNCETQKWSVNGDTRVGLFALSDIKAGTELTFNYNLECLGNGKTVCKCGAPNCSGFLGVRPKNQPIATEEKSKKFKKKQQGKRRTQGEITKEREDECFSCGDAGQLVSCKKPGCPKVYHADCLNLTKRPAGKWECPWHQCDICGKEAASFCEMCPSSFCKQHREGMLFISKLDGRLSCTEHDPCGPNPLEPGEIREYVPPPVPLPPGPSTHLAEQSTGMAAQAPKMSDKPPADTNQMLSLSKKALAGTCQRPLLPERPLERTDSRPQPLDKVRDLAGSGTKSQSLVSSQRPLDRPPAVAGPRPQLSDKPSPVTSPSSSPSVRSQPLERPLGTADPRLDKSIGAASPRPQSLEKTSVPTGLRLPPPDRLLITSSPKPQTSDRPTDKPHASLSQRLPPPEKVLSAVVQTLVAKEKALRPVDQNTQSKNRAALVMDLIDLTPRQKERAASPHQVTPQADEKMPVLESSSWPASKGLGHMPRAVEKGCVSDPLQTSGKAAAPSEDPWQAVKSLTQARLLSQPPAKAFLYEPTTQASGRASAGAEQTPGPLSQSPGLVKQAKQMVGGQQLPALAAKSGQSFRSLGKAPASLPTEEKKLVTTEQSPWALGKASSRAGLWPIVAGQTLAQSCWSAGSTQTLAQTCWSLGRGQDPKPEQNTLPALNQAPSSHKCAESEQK
Sequence of USP 16 (h) (Q9Y5T5 whole entry): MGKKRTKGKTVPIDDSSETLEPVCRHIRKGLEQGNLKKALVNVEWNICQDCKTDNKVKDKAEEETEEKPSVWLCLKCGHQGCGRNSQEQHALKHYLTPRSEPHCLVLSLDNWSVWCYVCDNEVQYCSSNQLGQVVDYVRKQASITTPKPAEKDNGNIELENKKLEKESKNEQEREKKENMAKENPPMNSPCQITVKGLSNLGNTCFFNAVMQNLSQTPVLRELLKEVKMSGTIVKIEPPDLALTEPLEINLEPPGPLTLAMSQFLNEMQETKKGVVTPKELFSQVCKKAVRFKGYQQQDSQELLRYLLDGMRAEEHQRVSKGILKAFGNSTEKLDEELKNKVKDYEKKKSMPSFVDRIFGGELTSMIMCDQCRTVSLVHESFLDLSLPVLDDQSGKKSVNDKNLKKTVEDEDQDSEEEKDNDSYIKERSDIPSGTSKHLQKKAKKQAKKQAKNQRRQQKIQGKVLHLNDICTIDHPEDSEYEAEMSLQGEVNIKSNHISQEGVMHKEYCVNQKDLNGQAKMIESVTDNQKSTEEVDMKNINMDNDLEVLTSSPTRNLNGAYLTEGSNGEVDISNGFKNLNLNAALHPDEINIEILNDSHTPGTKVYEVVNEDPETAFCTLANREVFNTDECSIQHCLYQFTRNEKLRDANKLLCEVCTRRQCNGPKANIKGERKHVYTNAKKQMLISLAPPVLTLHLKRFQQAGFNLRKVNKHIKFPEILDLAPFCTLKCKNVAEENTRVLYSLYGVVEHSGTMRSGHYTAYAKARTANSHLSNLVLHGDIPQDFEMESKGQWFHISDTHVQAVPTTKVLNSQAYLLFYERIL
Sequence of USP 10 (h) (Q14694 whole entry): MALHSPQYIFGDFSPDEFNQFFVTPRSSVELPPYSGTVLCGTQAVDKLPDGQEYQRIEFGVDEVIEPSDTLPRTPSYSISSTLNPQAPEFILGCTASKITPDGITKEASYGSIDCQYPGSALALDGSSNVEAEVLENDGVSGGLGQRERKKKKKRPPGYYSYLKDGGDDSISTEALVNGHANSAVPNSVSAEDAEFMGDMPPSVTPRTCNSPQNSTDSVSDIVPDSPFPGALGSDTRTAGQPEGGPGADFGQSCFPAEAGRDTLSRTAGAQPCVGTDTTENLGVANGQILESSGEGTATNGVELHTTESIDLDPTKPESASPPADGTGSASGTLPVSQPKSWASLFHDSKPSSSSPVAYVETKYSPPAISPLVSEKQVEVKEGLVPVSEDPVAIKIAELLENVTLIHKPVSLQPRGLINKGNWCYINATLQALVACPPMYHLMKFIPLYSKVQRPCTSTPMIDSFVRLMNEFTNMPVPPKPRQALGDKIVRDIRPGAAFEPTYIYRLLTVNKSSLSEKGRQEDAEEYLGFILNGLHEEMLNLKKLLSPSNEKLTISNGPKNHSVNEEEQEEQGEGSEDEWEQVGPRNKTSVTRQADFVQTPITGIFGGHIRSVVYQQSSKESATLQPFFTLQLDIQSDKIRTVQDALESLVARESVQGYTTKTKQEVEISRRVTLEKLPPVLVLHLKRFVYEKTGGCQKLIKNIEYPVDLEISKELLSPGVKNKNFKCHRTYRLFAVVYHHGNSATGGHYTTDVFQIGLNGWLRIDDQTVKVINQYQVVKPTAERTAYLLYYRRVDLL
T10 sequence (Q86U86 518-625 limits assumed): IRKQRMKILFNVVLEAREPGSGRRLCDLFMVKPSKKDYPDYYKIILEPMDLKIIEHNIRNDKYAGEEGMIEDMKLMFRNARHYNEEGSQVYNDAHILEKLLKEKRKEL

On to `CCC(=O)N1CCOc2c(cc(-c3ccc(OC)c(OC)c3)cc2OC[C@H]2CCCN(C)C2)C1` [I-CBP112, reference compound], for which the IC50 at FALZ (h) bromodomain turned out to be 24.5 µM.
Turning to `NC(=O)CI` [Iodoacetamide, reference compound], the IC50 on USP 16 (h) came out at 3.5 µM.
The compound `CCCOC(=O)c1cc(O)c(O)c(O)c1` [N-Propyl Gallate, reference compound] showed an IC50 against Lipid Peroxidase of 206 µM.
As for `CN1C(=O)[C@@]23C[C@]4([C@]56C[C@@]78SS[C@@](CO)(C(=O)N7[C@H]5Nc5ccccc56)N(C)C8=O)c5ccccc5N[C@@H]4N2C(=O)[C@]1(CO)SS3` [chaetocin, reference compound], the IC50 at NSD1 (h) (Table 10, read-out: Reference IC50) was determined as 0.13 µM; at NSD1 (h) (Table 11, inhibition/concentration-response curve, read-out: IC50), 0.24 µM; at WHSC1(h) (NSD2(h)), 0.48 µM.
With `CN1C(=O)C=CC1=O` [N-Methylmaleimide, reference compound], the 50% inhibitory concentration (IC50) on USP 10 (h) came to 1000 µM.
Turning to `O=C([O-])c1ccccc1-c1c2cc(Br)c(=O)cc-2oc2[c]([Hg+])c([O-])c(Br)cc12.[Na+].[Na+].[OH-]` [mercurochrome, reference compound], the half-inhibitory concentration (IC50) on SETD8 (h) worked out at 2.4 µM.
In the case of `CCCOc1ccn2c(C(C)=O)cc(-c3ccccc3S(C)(=O)=O)c2c1` [GSK2801, reference compound], the results for the 50% inhibitory concentration (IC50) (in assay [1]; on TAF1(1) (h) bromodomain; on TAF1(2)(h) bromodomain) were 10 µM, 4.4 µM and 10 µM, respectively.
With `Cc1ccc(C(=O)Nc2ccc(S(=O)(=O)O)c3cc(S(=O)(=O)O)cc(S(=O)(=O)O)c23)cc1NC(=O)c1cccc(NC(=O)Nc2cccc(C(=O)Nc3cc(C(=O)Nc4ccc(S(=O)(=O)O)c5cc(S(=O)(=O)O)cc(S(=O)(=O)O)c45)ccc3C)c2)c1` [suramin, reference compound], the IC50 in assay [2] worked out at 21 µM; at NSD3/WHSC1L1 (h), 1.5 µM.
For `Cc1cc(/N=N/c2cc(S(=O)(=O)O)c(C)cc2C)c(N)cc1O` [Ischemin sodium salt, reference compound], the concentration for half-maximal inhibition (IC50) at ATAD2B (h) bromodomain worked out at 76.6 µM; at PB1(4) (h) bromodomain, 6.8 µM.
